Data reported in ChEMBL document CHEMBL5661955, “ASAP - In vitro cytotoxicity” (2024).
Several values for one entry are separate records, joined by “and”; a condition that tells them apart may be missing. Identical values can stand only once.

Tests used:
[1] = (§1) Functional CPE-based assay to measure dose dependent changes in cell viability from drug treatment in Vero E6 miRFP670 cells. Cells are treated with antiviral candidates that have been serially diluted. Cytotoxicity is reported via analysis of MTS assays in uninfected cells. The assay has been performed by KU Leuven.; type: toxicity, Vero C1008; settings: chlorocebus sabaeus, Vero E6 miRFP670 cells
[2] = Functional assay to measure dose dependent changes in cell viability from drug treatment in Vero E6 miRFP670 cells (cotreated with P-gp inhibitor, CP100356) that are infected with Dengue virus type 2 New Guinea C. […] Cytotoxicity is reported via via analysis of DAPI count using high-content imager. The assay has been performed by KU Leuven.; type: toxicity, cell-based, Vero C1008; settings: chlorocebus sabaeus, p-gp concentration 500 nM
[3] = as §1, with “miRFP670 cells (cotreated with P-gp inhibitor, CP100356).” for “miRFP670 cells.”; type: toxicity, Vero C1008; settings: chlorocebus sabaeus, p-gp concentration 500 nM
[4] = Functional metabolic assay to measure dose dependent changes in cell viability from drug treatment in Vero E6/TMPRSS2 cells (cotreated with P-gp inhibitor, Elacridar). […] Cytotoxicity is reported via measuring absorbance and analysis of MTT/MTS assays in uninfected cells. The assay has been performed by Icahn School of Medicine at Mount Sinai.; type: toxicity, cell-based, VeroE6/TMPRSS2; settings: chlorocebus sabaeus, p-gp concentration 2 uM; for CC50: Vero E6/TMPRSS2 cells, with Elacridar (P-gp inhibitor, concentration not stated); for CC10: veroe6/tmprss2
[5] = with CP100356 (P-gp inhibitor, concentration not stated)
[6] = Vero E6 miRFP670 cells, with CP100356 (P-gp inhibitor, concentration not stated)

SMILES	CC50 [1] [µM]	CC50 [2, 5] [µM]	also measured
NCc1cccc(NC(=O)c2cc(Cl)cc3[nH]ncc23)c1	> 50		
O=C(NS(=O)(=O)C1CC1)c1cc(Cl)ccc1NS(=O)(=O)c1ccc(Oc2ccccc2Cl)cc1	> 50	> 50	
O=C(Nc1cc(Cl)cc([C@H]2C[C@@H]2c2cccc(C3CCNCC3)c2)c1)OCc1ccccc1	1.23	3.44	
NCc1cc(NC(=O)c2cc(Cl)cc(NC(=O)OCc3ccccc3)c2)cc([C@@H]2C[C@H]2C(=O)O)c1	9.99	21.8	
CN1Cc2ccc(NC(=O)c3cc(Cl)cc4[nH]ncc34)cc2C1	> 50		
CNC(=O)[C@H](Nc1cc(CN)cc(C(=O)O)c1)c1cc(Cl)cc(C2CC2)c1	> 50	> 50	
N[C@H]1Cc2ccc(NC(=O)c3cc(Cl)cc(NC(=O)OCc4ccccc4)c3)cc2C1	2.82	4.15	
CCNC(=O)Nc1cc(Cl)cc(C(=O)Nc2cccc(CN)c2)c1	> 50	> 50	
C=CC[C@H](Nc1cc(Cl)cc(NC(=O)OCc2ccccc2)c1)c1ccc(-c2nn[nH]n2)cc1	14.6	7.62	
C=C1C[C@H](c2cc(Cl)cc(NC(=O)OCc3ccccc3)c2)[C@@H](c2cccc(-c3nn[nH]n3)c2)C1	5.72	7.56	
O=C(Nc1cc(Cl)cc(-c2cccc3c(C(=O)O)cccc23)c1)OCc1ccccc1	< 0.391		
O=C(Nc1ccc2c(c1)CNC2)c1cc(Br)cc2c1OCO2	23		
NCc1cccc(NC(=O)c2cc(Cl)cc(C3CC3)c2)c1	46.6		
CNC(=O)[C@H](Nc1cc(CN)cc(C(=O)O)c1)c1cc(Cl)cc(NC(=O)OCc2ccccc2)c1	> 50	> 50	
NCc1cccc(NC(=O)[C@@H](NC(=O)OCc2ccccc2)c2ccc(-c3cc4cccnc4s3)cc2)c1	34.7	> 50	
COc1cc(-c2cc(Cl)cc(NC(=O)OCc3ccccc3)c2)c(OC)cc1CC(=O)O	49.8		
C=CC[C@H](Nc1ccc(-c2nn[nH]n2)cc1)c1cc(Cl)cc(NC(=O)OCc2ccccc2)c1	46.2	10.7	
NCc1cc(/C=C/C(=O)O)cc(NC(=O)c2cc(Cl)cc(NC(=O)OCc3ccccc3)c2)c1	> 50	15.7	
O=C(NC1CCCCC1)c1cc(Cl)ccc1NS(=O)(=O)c1ccc(Oc2ccccc2Cl)cc1	3.46		
NCc1cccc(NC(=O)[C@H](NC(=O)OCc2ccccc2)c2ccc(Br)c(Cl)c2)c1	10	13.4	
O=C(Nc1cccc(-c2nnn[nH]2)c1)c1cc(Cl)cc2[nH]ncc12	> 50		
O=C(Nc1ccc2c(c1)CNCC2)c1cc(Cl)cc2[nH]ncc12	> 50		
CC(C)Oc1ccc(S(=O)(=O)Nc2ccc(Cl)cc2C(=O)O)cc1	> 50		
O=C(Nc1cc(Cl)cc(C(=O)Nc2cccc([C@H]3C[C@H]3C(=O)O)c2)c1)OCc1ccccc1	> 50		
CCNC(=O)Nc1cc(Cl)cc(C(=O)Nc2ccc3c(c2)CNCCO3)c1	> 50	35.3	
O=C(Nc1cc(Cl)cc(-c2ccc3[nH]nc(C(=O)O)c3c2)c1)OCc1ccccc1	> 50	13.6	
O=C(NC1CCOCC1)[C@H](Nc1ccc2c(c1)CNC2)c1cc(Cl)cc(C2CC2)c1		> 50	CC50 [3, 6]: 49.9 µM; CC50 [4]: > 50 µM; CC10 [4]: > 50 µM
Cc1cc(C(=O)Nc2ccc3c(c2)CNC3)c2cn[nH]c2c1		24	CC50 [3, 6]: > 50 µM; CC10 [4]: 24.901 µM and 9.914 µM

SMILES	CC50 [1] [µM]	CC50 [2, 5] [µM]	also measured
COc1ccc(S(=O)(=O)Nc2cc(F)c(Cl)cc2C(=O)NCC(C)C)cc1	4.25		
CC(C)(C)c1cc(Br)cc(C(=O)Nc2ccc3c(c2)CNC3)c1	5.77		
O=C(Nc1ccc2c(c1)CNC2)c1cc(Br)cc2ccccc12	11.4		
O=C(NCC1CC1)c1cc(Cl)ccc1NS(=O)(=O)c1ccc(Oc2ccccc2Cl)cc1	5.46		
O=C(Nc1ccc2c(c1)CNC2)c1cc(Br)cc2[nH]c([C@H]3CCOC3)nc12		3.68	CC50 [3, 6]: 5.11 µM; CC50 [4]: 26.1 µM; CC10 [4]: 0.852 µM
NCc1cc(Cl)cc(C(=O)Nc2ccc3c(c2)CNC3)c1	> 50		
O=C(NC[C@H]1CCCO1)[C@H](Nc1ccc2c(c1)CNC2)c1cc(Cl)cc2[nH]ncc12		> 50	CC50 [3, 6]: > 50 µM; CC50 [4]: > 50 µM; CC10 [4]: > 50 µM
O=C(Nc1cc(Cl)cc([C@H]2[C@H](CO)[C@@H]2c2cccc(-c3nn[nH]n3)c2)c1)OCc1ccccc1	> 50		
O=C(Nc1cccc(-c2nnn[nH]2)c1)c1cc(Cl)cc(C2CC2)c1	> 50		
Cc1ccc(NC(=O)c2cc(Cl)cc3[nH]ncc23)cc1CN		> 50	CC50 [3, 6]: > 50 µM; CC50 [4]: > 50 µM; CC10 [4]: 0.133 µM
CC(=O)NCc1cccc(NC(=O)c2cc(Cl)cc(NC(=O)OCc3ccccc3)c2)c1	38		
Cc1c(C(=O)Nc2cc(-c3cccnc3)ccn2)cc(C2CC2)n1C		18.9	CC50 ([2]; vero c1008): 11.9 µM; CC50 [3, 6]: > 50 µM; CC50 ([3]; vero c1008): 40.1 µM; CC50 [4]: > 50 µM; CC10 [4]: 13.062 µM
COCCNC(=O)[C@H](Nc1ccc2c(c1)CNC2)c1cc(Cl)cc(C2CC2)c1		> 50	CC50 [3, 6]: > 50 µM; CC50 [4]: > 50 µM; CC10 [4]: > 50 µM
Cn1cc(CNC(=O)[C@H](Nc2ccc3c(c2)CNC3)c2cc(Cl)cc(C3CC3)c2)cn1		> 50	CC50 [3, 6]: > 50 µM; CC50 [4]: > 50 µM
O=C(Nc1ccc2c(c1)CNC2)c1cc(F)cc2[nH]ncc12		> 50	CC50 [3, 6]: > 50 µM; CC50 [4]: > 50 µM; CC10 [4]: > 50 µM
COC(=O)CNC(=O)[C@H](Nc1ccc2c(c1)CNC2)c1cc(Cl)cc(C2CC2)c1		2.05	CC50 [3, 6]: > 50 µM; CC50 [4]: > 50 µM
Nc1cc(Cl)cc(C(=O)Nc2ccc3c(c2)CNC3)c1N		> 50	CC50 [3, 6]: > 50 µM; CC50 [4]: > 50 µM; CC10 [4]: < 0.023 µM
CCOCCNC(=O)c1cc(Cl)ccc1NS(=O)(=O)c1ccc(Oc2ccccc2Cl)cc1	8.81		
CC(C)c1cc(Br)cc(C(=O)Nc2ccc3c(c2)CNC3)c1	11.5		
CNC(=O)[C@H](Nc1ccc2c(c1)CNC2)c1cc(Cl)cc(C2CC2)c1		> 50	CC50 [3, 6]: > 50 µM; CC50 [4]: > 50 µM; CC10 [4]: > 50 µM
N#C[C@H](Nc1cncc(-c2nn[nH]n2)c1)c1cc(Cl)cc(NC(=O)OCc2ccccc2)c1	> 50		
COc1cc(Br)cc(C(=O)Nc2ccc3c(c2)CNC3)c1		27.5	CC50 [3, 6]: 47.5 µM; CC50 [4]: > 50 µM; CC10 [4]: 4.817 µM
N#CCCNC(=O)[C@H](Nc1ccc2c(c1)CNC2)c1cc(Cl)cc(C2CC2)c1		24.2	CC50 [3, 6]: > 50 µM; CC50 [4]: > 50 µM; CC10 [4]: > 50 µM
O=C(NCC(F)F)[C@H](Nc1ccc2c(c1)CNC2)c1cc(Cl)cc(C2CC2)c1			CC50 ([2]; vero c1008): > 50 µM and 21.1 µM and 27.1 µM; CC50 [3, 6]: > 50 µM; CC50 ([3]; vero c1008): 46.9 µM and 47.6 µM; CC50 [4]: > 50 µM
O=C(Nc1ccc2c(c1)CNC2)c1cc(F)cc2[nH]nnc12		> 50	CC50 [3, 6]: > 50 µM; CC50 [4]: > 50 µM; CC10 [4]: > 50 µM
Cc1c(C(=O)Nc2cc([C@H]3CCOC3)ccn2)cc(C2CC2)n1C		> 50	CC50 ([2]; vero c1008): 29.2 µM; CC50 ([3]; vero c1008): 9.14 µM and > 50 µM; CC50 [4]: > 50 µM; CC10 [4]: > 50 µM
O=C(Nc1ccc2c(c1)CNC2)c1cc(Cl)cc2c1CCC2	18.4		
